The supplement of paper PMC10733146

Columns and labels:
Experiment in all cases: viability relative to DMSO control (fraction); higher = less drug effect (more viable cells)
Details in all cases: 48 h
[1] = system: primary CLL patient cells (S031)
Summary of the method: (§1)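 Primary mononuclear tumour cells (Ficoll-isolated from blood or bone marrow, or processed lymph node; fresh or cryopreserved) were plated at 4 × 10^4 cells per well in 384-well plates with pre-plated compounds at five concentrations, one well each. Medium was RPMI-1640 with penicillin/streptomycin, L-glutamine and human serum, at 37 °C and 5% CO2 for 48 h. Viability was read as CellTiter-Glo luminescence relative to the median of 16 inner DMSO wells.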

[2] = system: primary B-PLL patient cells (S016)
Summary of the method: as §1

[3] = system: primary AML patient cells (S071)
Summary of the method: as §1

[4] = system: primary ALL patient cells (S088)
Summary of the method: as §1

[5] = system: primary DLBCL patient cells (S076)
Summary of the method: as §1

[6] = system: primary AML patient cells (S060)
Summary of the method: as §1

[7] = system: primary DLBCL patient cells (S082)
Summary of the method: as §1

[8] = system: primary AML patient cells (S085)
Summary of the method: as §1

[9] = system: primary DLBCL patient cells (S049)
Summary of the method: as §1

[10] = system: primary T-NHL patient cells (S058)
Summary of the method: as §1

[11] = system: primary AML patient cells (S007)
Summary of the method: as §1

[12] = system: primary AML patient cells (S019)
Summary of the method: as §1

[13] = system: primary AML patient cells (S011)
Summary of the method: as §1

[14] = system: primary FL patient cells (S087)
Summary of the method: as §1

[15] = system: primary AML patient cells (S091)
Summary of the method: as §1

[16] = system: primary AML patient cells (S037)
Summary of the method: as §1

[17] = system: primary AML patient cells (S089)
Summary of the method: as §1

[18] = system: primary MCL patient cells (S041)
Summary of the method: as §1

In the case of `Nc1cccc2c1CN(C1CCC(=O)NC1=O)C2=O` (stereo not given) [Lenalidomide], the viability ([1]; 0.008 µM) is reported as 1.09, the viability ([1]; 0.04 µM) is reported as 1.08 and the viability ([1]; 0.2 µM) is reported as 1.08. It also gave a viability ([1]; 1 µM) of 1.04, a viability ([1]; 5 µM) of 1.01 and a viability ([2]; 0.008 µM) of 1.1. For the same molecule, the viability ([2]; 0.04 µM) was 1.05, the viability ([2]; 0.2 µM) was 0.883 and the viability ([2]; 1 µM) was 0.819. The viability ([2]; 5 µM) was 0.719, the viability ([3]; 0.008 µM) was 0.864 and the viability ([3]; 0.04 µM) was 0.563. It also gave a viability ([3]; 0.2 µM) of 0.386, a viability ([3]; 1 µM) of 0.321 and a viability ([3]; 5 µM) of 0.295. For the same molecule, the viability ([4]; 0.008 µM) was 1.07, the viability ([4]; 0.04 µM) was 1.05 and the viability ([4]; 0.2 µM) was 0.976. For the same molecule, the viability ([4]; 1 µM) was 0.933, the viability ([4]; 5 µM) was 0.904 and the viability ([5]; 0.008 µM) was 0.847. It also gave a viability ([5]; 0.04 µM) of 1.11, a viability ([5]; 0.2 µM) of 0.749 and a viability ([5]; 1 µM) of 0.992. It also gave a viability ([5]; 5 µM) of 1.06, a viability ([6]; 0.008 µM) of 1.02 and a viability ([6]; 0.04 µM) of 0.973. It also gave a viability ([6]; 0.2 µM) of 0.992, a viability ([6]; 1 µM) of 1 and a viability ([6]; 5 µM) of 1.01. For the same molecule, the viability ([7]; 0.008 µM) was 1.1, the viability ([7]; 0.04 µM) was 1.07 and the viability ([7]; 0.2 µM) was 1.08. The viability ([7]; 1 µM) was 1.14, the viability ([7]; 5 µM) was 1.1 and the viability ([8]; 0.008 µM) was 0.956. For the same molecule, the viability ([8]; 0.04 µM) was 0.688, the viability ([8]; 0.2 µM) was 0.572 and the viability ([8]; 1 µM) was 0.524. For the same molecule, the viability ([8]; 5 µM) was 0.529, the viability ([9]; 0.008 µM) was 0.962 and the viability ([9]; 0.04 µM) was 1.09. The viability ([9]; 0.2 µM) was 0.905, the viability ([9]; 1 µM) was 0.943 and the viability ([9]; 5 µM) was 0.974. It also gave a viability ([10]; 0.008 µM) of 0.915, a viability ([10]; 0.04 µM) of 1.17 and a viability ([10]; 0.2 µM) of 0.862. The viability ([10]; 1 µM) was 1.14, the viability ([10]; 5 µM) was 0.91 and the viability ([11]; 0.008 µM) was 0.801. For the same molecule, the viability ([11]; 0.04 µM) was 0.386, the viability ([11]; 0.2 µM) was 0.204 and the viability ([11]; 1 µM) was 0.188. For the same molecule, the viability ([11]; 5 µM) was 0.152, the viability ([12]; 0.008 µM) was 1.07 and the viability ([12]; 0.04 µM) was 0.828. The viability ([12]; 0.2 µM) was 0.761, the viability ([12]; 1 µM) was 0.863 and the viability ([12]; 5 µM) was 0.71. It also gave a viability ([13]; 0.008 µM) of 0.811, a viability ([13]; 0.04 µM) of 0.644 and a viability ([13]; 0.2 µM) of 0.488. For the same molecule, the viability ([13]; 1 µM) was 0.496, the viability ([13]; 5 µM) was 0.461 and the viability ([14]; 0.008 µM) was 1. It also gave a viability ([14]; 0.04 µM) of 0.963, a viability ([14]; 0.2 µM) of 0.926 and a viability ([14]; 1 µM) of 0.956. The viability ([14]; 5 µM) was 0.87, the viability ([15]; 0.008 µM) was 1.09 and the viability ([15]; 0.04 µM) was 1.1. It also gave a viability ([15]; 0.2 µM) of 1.11, a viability ([15]; 1 µM) of 0.943 and a viability ([15]; 5 µM) of 1.1. It also gave a viability ([16]; 0.008 µM) of 1.03, a viability ([16]; 0.04 µM) of 1.31 and a viability ([16]; 0.2 µM) of 0.912. The viability ([16]; 1 µM) was 1.03, the viability ([16]; 5 µM) was 0.867 and the viability ([17]; 0.008 µM) was 0.916. For the same molecule, the viability ([17]; 0.04 µM) was 0.727, the viability ([17]; 0.2 µM) was 0.724 and the viability ([17]; 1 µM) was 0.559. It also gave a viability ([17]; 5 µM) of 0.737, a viability ([18]; 0.008 µM) of 1.01 and a viability ([18]; 0.04 µM) of 0.929. It also gave a viability ([18]; 0.2 µM) of 0.888, a viability ([18]; 1 µM) of 0.953 and a viability ([18]; 5 µM) of 0.863.
